The structures appear in SMILES notation.

The source of these data is patent publication US20120010206A1, “IMIDAZOLOPYRIDINE COMPOUNDS USEFUL FOR THE TREATMENT OF DEGENERATIVE AND INFLAMMATORY DISEASES” (priority 2006, published 2012).

Test [1] addresses T1, TAK1-TAB1 fusion protein (Homo sapiens, UniProt O43318).
T1 construct: purchased Upstate 14-600
T1 sequence (O43318 with tags, fused parts or gaps limits assumed): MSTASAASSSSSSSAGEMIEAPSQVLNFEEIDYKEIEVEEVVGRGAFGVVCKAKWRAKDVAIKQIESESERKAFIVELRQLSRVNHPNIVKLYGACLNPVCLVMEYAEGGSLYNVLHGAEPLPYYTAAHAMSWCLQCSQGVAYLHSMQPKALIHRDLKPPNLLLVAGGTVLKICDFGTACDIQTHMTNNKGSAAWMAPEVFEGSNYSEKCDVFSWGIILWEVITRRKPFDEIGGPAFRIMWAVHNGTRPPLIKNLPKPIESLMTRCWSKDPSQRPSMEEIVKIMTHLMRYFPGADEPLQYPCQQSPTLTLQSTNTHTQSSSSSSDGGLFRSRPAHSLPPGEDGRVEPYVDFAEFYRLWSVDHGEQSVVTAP
The test is described as follows: In vitro TAK1 kinase assay (33P-ATP, casein substrate). The class given is biochemical. To be noted: semi-quantitative score, at least two independent experiments. The procedure: For assessing TAK1 inhibition, active TAK1-TAB1 fusion protein was used from Upstate (Cat. No, 14-600). Kinase reactions are set up in 96-well polypropylene plates in 25 μL containing 0.5 mU TAK1-TAB1 fusion protein, […], 0.01 μCi/μL [^33P]-γ-ATP, 0.1 mg/mL casein substrate in 1× reaction buffer containing 10 mM MOPS pH 7.0, 1 mM EDTA.
Starting from the compound master stocks (all at 10 mM concentration in 100% DMSO) a 3-fold serial dilution is made in 96-well plates in 100% DMSO. Plates are further diluted […] in H2O containing 3.5% DMSO, to obtain an intermediate work stock with compounds at 5× the final assay concentration in 5% DMSO.
5 μL of the intermediate stock is transferred into V-bottom 96 well polypropylene plates and 11 μL of Enzyme mix is added. Enzyme mix is made by combining 5 μL 5× reaction buffer ([…] pH 7.0, 1 mM EDTA), 5 μL casein (Sigma) diluted in H2O to 0.5 mg/mL and 1 μL of TAK1-TAB1 fusion protein that was prediluted to 0.5 mU/μL in 1× enzyme dilution buffer (20 mM MOPS pH 7.0, 0.1 mM EDTA, 0.01% Brij-35, 5% glycerol, 1 mM DTT, 1 mg/ml BSA).
The reactions are started by the addition of 9 μL of mixture containing ATP (20.83 uM) and [^33P]-γ-ATP (0.028 μCi/μL).
The assay is stopped 90 minutes after incubation at 30° C. by the addition of 25 μL phosphoric acid (150 mM). The label incorporated into the casein substrate is separated from labeled unincorporated ATP by filtration onto 96-well filter plates using a harvester device. After 6 washes with 75 mM phosphoric acid, the bottom of the filter plates are sealed, and incorporated label is quantified after addition of 40 μL scintillation fluid using TopCount.
Based on these percent inhibition data obtained in at least two independent experiments for the compounds, compounds are ranked using semi-quantitative scores. Table A below lists a number of compounds which have been or can be prepared according to the synthetic methods described herein. Semi-quantitative score: • *>3001 nM • ** 1001-3000 nM • *** 101-1000 nM • ****<100 nM

Test [2] relates to MMP1 expression from activated SFs (RASF). Put plainly: MMP assay: MMP1 expression (ELISA) by TNF-α-triggered RASFs. The class given is cell-based. The following applies: RASF triggered with TNFα, MMP1 ELISA after 48 hrs, semi-quantitative score. On the procedure:
A 384-well format ELISA for measurement of MMP1 is developed. Various primary antibodies are tested, as well as various ELISA protocols. The following protocol is developed and validated to measure MMP1 levels in SF supernatant in 384 well plates: white Lumitrac 600 384 well plates (Greiner) are coated with 2 μg/mL anti-MMP1 antibody MAB1346 (Chemicon). The antibody is diluted in buffer 40 (1.21 g Tris base (Sigma), 0.58 g NaCl (Calbiochem) and 5 mL 10% NaN3 (Sigma) in 1 L milliQ water and adjusted to pH 8.5). After overnight incubation at 4° C., plates are washed with PBS (80 g NaCl, 2 g KCl (Sigma), 11.5 g Na2HPO4.7H2O and 2 g KH2PO4 in 10 L milliQ; pH 7.4) and blocked with 100 μL/well Casein buffer (2% Casein (VWR International) in PBS). Next day, casein buffer is removed from ELISA plates and replaced by 50 μL/well EC buffer (4 g casein, 2.13 g Na2HPO4 (Sigma), 2 g bovine albumin (Sigma), 0.69 g NaH2PO4.H2O (Sigma), 0.5 g CHAPS (Roche), 23.3 g NaCl, 4 mL 0.5 M EDTA pH 8 (Invitrogen), 5 mL 10% NaN3 in 1 L milliQ and adjusted to pH 7.0). 0.25 mM DTT (Sigma) is added to the thawed sample plates. After removal of the EC buffer, 20 μL of sample is transferred to the ELISA plates. After overnight incubation at 4° C. plates are washed twice with PBS and once with PBST (PBS with 0.05% Tween-20 (Sigma)) and incubated with 35 μL/well biotinylated anti-MMP1 antibody solution (R&D). This secondary antibody is diluted in buffer C (0.82 g NaH2PO4.H2O, 4.82 g Na2HPO4, 46.6 g NaCl, 20 g bovine albumin and 4 ml, 0.5M EDTA pH 8 in 2 L milliQ and adjusted to pH 7.0) at a concentration of 5 μg/mL. After 2 h of incubation at RT, plates are washed as described above and incubated with 50 μL/well streptavidin-HRP conjugate (Biosource). Streptavidin-HRP conjugate is diluted in buffer C at a concentration of 0.25 μg/mL. After 45 min, plates are washed as described above and incubated for 5 min with 50 μL/well BM Chem ELISA Substrate (Roche). Readout is performed on the Luminoscan Ascent Luminometer (Labsystems) with an integration time of 200 msec or with an Envision reader (Perkin Elmer).
SFs were acquired at passage 1 from a commercial supplier (Cell applications, Inc.). SFs are cultured in DMEM supplemented with 10% heat-inactivated FBS, 1× penicillin/streptomycin (Invitrogen) at 37° C., 10% CO2 until passage 6. Aliquots of the cells are frozen and cryopreserved in liquid nitrogen. Starting from a cryopreserved aliquot, cells are further expanded by sub-culturing cells at 1/3 ratio every week. Cells between passage 10 and 12 are routinely used in compound testing according to the following protocol.
Starting from the compound master stocks (all at 10 mM concentration in 100% DMSO) a 3-fold serial dilution is made in 96-well plates in 100% DMSO. Then, plates are further diluted 45-fold in M199 medium supplemented with 1% heat-inactivated FBS to obtain a intermediate work stock.
At day 1, RASFs are seeded in 96 well plates (flat bottom, tissue culture treated, Greiner) at a density of 3000 cells/well in complete synovial growth medium (Cell Applications). Day 5, the medium is completely removed from the cells, and replaced by 81 μL of M199 medium supplemented with 1% heat-inactivated FBS followed by addition of 10 μL compound out of the intermediate work stock. After an incubation period of 90 minutes, which allows the compounds to equilibrate and enter the cells, cells are stimulated with either TNF-α or ‘complex trigger’. TNF-α trigger is added in a volume of […] to obtain final concentration of 10 ng/mL. For that, TNF-α stock (PeproTech) at 10 μg/mL was diluted to 100 ng/mL TNF-α in M199 medium supplemented with 1% FBS. ‘Complex trigger’ mix is added in a volume of 20 μL to obtain a final concentration of 12.5%. For that, ‘complex trigger’ mix, is diluted to 80% with M199 medium supplemented with 1% FBS. […]
Background: An ELISA detects its analyte on a solid surface through an enzyme-linked reagent.

As usually defined, the IC50 is the concentration that gives 50% inhibition. Low readings indicate higher potency, high ones lower potency. By EC50 is commonly meant the concentration at which the effect is half-maximal. Low values mean greater potency, high ones weaker potency. As to `CCC(CC)N1CCN(c2ccc(Nc3ccc(-c4cc[nH]c(=O)c4)n4ccnc34)cc2)CC1` [Compound 87], the IC50 in test [1] was 0.101 to 1 µM. The molecule further gave an EC50 in test [2] of 0.101 to 1 µM.
Take `Cc1n[nH]c(C)c1-c1ccc(Nc2ccc(N3CCOCC3)cc2)c2nccn12` [Compound 92]: the concentration for half-maximal inhibition (IC50) in test [1] was above 3 µM. Further, the EC50 in test [2] is above 3 µM.
Turning to `CC(C)CCN1CCN(c2ccc(Nc3ccc(-c4cc[nH]c(=O)c4)n4ccnc34)cc2)CC1` [Compound 86], in test [1], the IC50 is 0.101 to 1 µM. The EC50 in test [2] was 1 to 3 µM.
Regarding `O=c1cc(-c2ccc(Nc3ccc(N4CCOCC4)cc3)c3nccn23)cc[nH]1` [Compound 68], in test [1], the IC50 lay in the range of 0.101 to 1 µM. Further, the EC50 in test [2] is 0.101 to 1 µM.
`CC(C)N1CCN(c2ccc(Nc3ccc(-c4cccc(O)c4)n4ccnc34)cc2)CC1` [Compound 94] showed an IC50 in test [1] above 3 µM. In test [2], the 50% effective concentration (EC50) was above 3 µM.
For `CCOCCN1CCN(C(=O)c2ccc(Nc3ccc(-c4ccc5c(c4)CNC5=O)n4ccnc34)cc2)CC1` [Compound 40, 5-(8-(4-(4-(2-ethoxyethyl)piper-azine-1-carbonyl)phenyl-amino)imidazo[1,2-a]pyridin-5-yl)isoindolin-1-one], the IC50 in test [1] lay within 0.101 to 1 µM. In test [2], the EC50 was above 3 µM.
On the same counts, the results for `c1cn2c(-c3cn[nH]c3)ccc(Nc3ccc(N4CCSCC4)cc3)c2n1` [Compound 111, [5-(1H-Pyrazol-4-yl)-imidazo[1,2-a]pyridin-8-yl]-(4-thiomorpholin-4-yl-phenyl)-amine] are 1 to 3 µM and 0.101 to 1 µM.
In the same order, the values of `CCN1CCN(c2ccc(Nc3ccc(-c4ccc(C(N)=O)cc4)n4ccnc34)cc2)CC1` [Compound 81] are 0.101 to 1 µM and 1 to 3 µM.
In the same order, the values of `c1cn2c(-c3cn[nH]c3)ccc(Nc3ccc(N4CCN(C5CCC5)CC4)cc3)c2n1` [Compound 82] are 0.101 to 1 µM and above 3 µM.
In test [1], `CCC(C)N1CCN(C(=O)c2ccc(Nc3ccc(-c4ccc5c(c4)CNC5=O)n4ccnc34)cc2)CC1` (centres unmarked) [Compound 52, 5-(8-(4-(4-sec-butylpiperazine-1-carbonyl)phenylamino)imidazo [1,2-a]pyridin-5-yl)isoindolin-1-one] came in with an IC50 of 0.101 to 1 µM. Further, the EC50 in test [2] is above 3 µM.
In the same order, the values of `O=c1cc(-c2ccc(Nc3ccc(N4CCC(N5CCCCC5)CC4)cc3)c3nccn23)cc[nH]1` [Compound 120, 4-[8-(4-[1,4′]Bipiperidinyl-1′-yl-phenylamino)-imidazo[1,2a]pyridi-5-yl]-1H-pyridin-2-one] are 0.101 to 1 µM and 0.101 to 1 µM.
In the same order, the values of `CC(C)N1CCN(c2ccc(Nc3ccc(-c4cccc5[nH]ccc45)n4ccnc34)cc2)CC1` [Compound 75] are 0.101 to 1 µM and above 3 µM.
On the same counts, the results for `O=c1cc(-c2ccc(Nc3ccc(N4CCOCC4)c(F)c3)c3nccn23)cc[nH]1` [Compound 65] are 0.101 to 1 µM and 0.101 to 1 µM.
In test [1], `O=C1NCc2cc(-c3ccc(Nc4ccc(C(=O)N5CCC(N6CCCCC6)CC5)cc4)c4nccn34)ccc21` [Compound 46, 5-(8-(4-(1,4′-bipiperidine-1′-carbonyl)phenylamino)imidazo[1,2-a]pyridin-5-yl)isoindolin-1-one] had an IC50 below 0.1 µM. Also, the EC50 in test [2] is above 3 µM.
On the same counts, the results for `CCN(CC)CCNS(=O)(=O)c1ccc(Nc2ccc(-c3ccc4c(c3)CNC4=O)n3ccnc23)cc1` [Compound 22, N-(2-(diethylamino)ethyl)-4-(5-(1-oxoisoindolin-5-yl)imidazo[1,2-a]pyridin-8-ylamino)benzene sulfonamide] are 0.101 to 1 µM and 1 to 3 µM.
In the same order, the values of `CCCN1CCN(c2ccc(Nc3ccc(-c4cc[nH]c(=O)c4)n4ccnc34)cc2)CC1` [Compound 84] are 0.101 to 1 µM and 0.101 to 1 µM.
In the same order, the values of `CC(C)N1CCC(c2ccc(Nc3ccc(-c4ccc5c(c4)CNC5=O)n4ccnc34)cc2)CC1` [Compound 19, 5-(8-(4-(1-isopropyl-piperidin-4-yl)phenylamino)imidazo[1,2-a]pyridin-5-yl)isoindolin-1-one] are below 0.1 µM and 0.101 to 1 µM.
The molecule `CNS(=O)(=O)c1ccc(Nc2ccc(-c3ccc4c(c3)CNC4=O)n3ccnc23)cc1` [Compound 24, N-methyl-4-(5-(1-oxoisoindolin-5-yl)imidazo[1,2-a]pyridin-8-ylamino)benzene sulfonamide] came in with a concentration for half-maximal inhibition (IC50) in test [1] of 0.101 to 1 µM. The concentration giving a half-maximal response (EC50) in test [2] was 1 to 3 µM.
As to `COCCNC(=O)c1ccc(Nc2ccc(-c3ccc4c(c3)CNC4=O)n3ccnc23)cc1` [Compound 58, N-(2-methoxyethyl)-4-(5-(1-oxoisoindolin-5-yl)imidazo[1,2-a]pyridin-8-ylamino)benzamide], the IC50 in test [1] fell in the range of 0.101 to 1 µM.
Turning to `O=c1cc(-c2ccc(Nc3ccc(N4CCC(F)(F)CC4)cc3)c3nccn23)cc[nH]1` [Compound 117, 4-{8-[4-(4,4-Difluoro-piperidin-1-yl)-phenylamino]-imidazo[1,2-a]pyridin-5-yl}-1H-pyridin-2-one], the IC50 in test [1] is above 3 µM.
